Biological target: T1, D880E-AR (Homo sapiens, UniProt P10275, D880E)
T1 sequence (P10275 1-920 D880E): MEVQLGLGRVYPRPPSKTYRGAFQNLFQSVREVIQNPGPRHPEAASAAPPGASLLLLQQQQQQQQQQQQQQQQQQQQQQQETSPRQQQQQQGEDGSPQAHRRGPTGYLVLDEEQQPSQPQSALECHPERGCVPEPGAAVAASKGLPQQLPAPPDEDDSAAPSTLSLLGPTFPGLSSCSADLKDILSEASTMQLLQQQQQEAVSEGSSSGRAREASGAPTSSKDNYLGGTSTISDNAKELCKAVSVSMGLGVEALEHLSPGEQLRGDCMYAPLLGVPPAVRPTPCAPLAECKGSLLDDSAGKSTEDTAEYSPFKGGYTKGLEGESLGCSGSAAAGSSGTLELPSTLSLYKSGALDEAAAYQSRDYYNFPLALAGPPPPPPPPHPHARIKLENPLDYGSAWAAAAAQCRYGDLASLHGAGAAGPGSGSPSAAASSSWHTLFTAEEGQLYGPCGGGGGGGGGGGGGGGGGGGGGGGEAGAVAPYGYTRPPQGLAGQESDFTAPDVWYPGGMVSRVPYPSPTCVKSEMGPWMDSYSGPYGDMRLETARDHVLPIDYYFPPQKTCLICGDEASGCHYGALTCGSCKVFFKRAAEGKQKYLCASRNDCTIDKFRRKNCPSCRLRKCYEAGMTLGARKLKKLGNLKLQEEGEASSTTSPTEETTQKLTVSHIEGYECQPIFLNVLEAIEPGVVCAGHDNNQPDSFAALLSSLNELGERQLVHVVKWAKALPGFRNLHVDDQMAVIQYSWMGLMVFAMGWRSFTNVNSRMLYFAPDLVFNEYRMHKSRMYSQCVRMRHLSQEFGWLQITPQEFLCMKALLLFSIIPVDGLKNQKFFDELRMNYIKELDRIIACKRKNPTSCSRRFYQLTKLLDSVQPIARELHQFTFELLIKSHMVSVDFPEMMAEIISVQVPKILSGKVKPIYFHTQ
Type: cell-based
Conditions: AR mutant D880E; transfected PC3 cells; 0.1 nM R1881; drug 0 to 50 μM

Agonist response to treatment: Partial
SMILES: CC(C)(O)C(=O)Nc1ccc([N+](=O)[O-])c(C(F)(F)F)c1 [Hydroxyflutamide, hydroxyflutamide]

Reference: PMC4729137, “Functional analysis of androgen receptor mutations that confer anti-androgen resistance identified in circulating cell-free DNA from prostate cancer patients” (Genome Biology, 2016)
